Data from PubChem BioAssay (NCI).
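Growth conditions: 96-well plates. Treatment: test compound, 48 hours, 5 concentrations. Analysis: linear interpolation between bracketing concentrations; unreached endpoints set to highest concentration. At the GI50, growth is halved. TGI: total growth inhibition.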

Tests used:
Experiment in all cases: DTP human tumour cell line panel, 48 h
786-0 renal = tested on: 786-0 renal
ACHN renal = tested on: ACHN renal
BT-549 breast = tested on: BT-549 breast
CCRF-CEM leukemia = tested on: CCRF-CEM leukemia
HOP-62 NSCLC = tested on: HOP-62 NSCLC
HOP-92 NSCLC = tested on: HOP-92 NSCLC
HS 578T breast = tested on: HS 578T breast
MDA-MB-231 breast = tested on: MDA-MB-231 breast
NCI-H23 lung = tested on: NCI-H23 lung
NCI/ADR-RES ovarian = tested on: NCI/ADR-RES ovarian
RXF 393 renal = tested on: RXF 393 renal
SF-268 CNS = tested on: SF-268 CNS
SF-295 CNS = tested on: SF-295 CNS
SF-539 CNS = tested on: SF-539 CNS
SK-MEL-2 melanoma = tested on: SK-MEL-2 melanoma
SNB-19 CNS = tested on: SNB-19 CNS
SNB-75 CNS = tested on: SNB-75 CNS
TK-10 renal = tested on: TK-10 renal
U251 CNS = tested on: U251 CNS
A498 renal = tested on: A498 renal
A549 NSCLC = tested on: A549 NSCLC
COLO 205 colon = tested on: COLO 205 colon
EKVX NSCLC = tested on: EKVX NSCLC
HCC-2998 colon = tested on: HCC-2998 colon
HCT-116 colon = tested on: HCT-116 colon
HCT-15 colon = tested on: HCT-15 colon
HL-60(TB) leukemia = tested on: HL-60(TB) leukemia
HT29 colon = tested on: HT29 colon
IGROV1 ovarian = tested on: IGROV1 ovarian
K-562 leukemia = tested on: K-562 leukemia
KM12 colon = tested on: KM12 colon
LOX IMVI melanoma = tested on: LOX IMVI melanoma
M14 melanoma = tested on: M14 melanoma
MALME-3M melanoma = tested on: MALME-3M melanoma
MCF7 breast = tested on: MCF7 breast
MDA-MB-435 = tested on: MDA-MB-435
MOLT-4 leukemia = tested on: MOLT-4 leukemia
NCI-H226 lung = tested on: NCI-H226 lung
NCI-H460 lung = tested on: NCI-H460 lung
NCI-H522 lung = tested on: NCI-H522 lung
OVCAR-3 ovarian = tested on: OVCAR-3 ovarian
OVCAR-4 ovarian = tested on: OVCAR-4 ovarian
OVCAR-5 ovarian = tested on: OVCAR-5 ovarian
OVCAR-8 ovarian = tested on: OVCAR-8 ovarian
PC-3 prostate = tested on: PC-3 prostate
RPMI-8226 leukemia = tested on: RPMI-8226 leukemia
SK-MEL-28 melanoma = tested on: SK-MEL-28 melanoma
SK-MEL-5 melanoma = tested on: SK-MEL-5 melanoma
SK-OV-3 ovarian = tested on: SK-OV-3 ovarian
SN12C renal = tested on: SN12C renal
SR leukemia = tested on: SR leukemia
SW-620 colon = tested on: SW-620 colon
T-47D breast = tested on: T-47D breast
UACC-257 melanoma = tested on: UACC-257 melanoma
UACC-62 melanoma = tested on: UACC-62 melanoma
UO-31 renal = tested on: UO-31 renal

Structure (SMILES): CC(=O)Nc1ccc(NC(=O)Nc2cccc(-c3nc(-c4ccc(NC(=O)c5cccs5)cc4Cl)no3)c2)cc1C(F)(F)F
- GI50 (786-0 renal): 2.12 µM
- TGI (786-0 renal): 4.76 µM
- GI50 (ACHN renal): 2.67 µM
- TGI (ACHN renal): 8.41 µM
- GI50 (BT-549 breast): 1.68 µM
- TGI (BT-549 breast): 4.6 µM
- GI50 (CCRF-CEM leukemia): 1.83 µM
- TGI (CCRF-CEM leukemia): > 100 µM
- GI50 (HOP-62 NSCLC): 0.718 µM
- TGI (HOP-62 NSCLC): 2.25 µM
- GI50 (HOP-92 NSCLC): 1.09 µM
- TGI (HOP-92 NSCLC): 3.02 µM
- GI50 (HS 578T breast): 1.83 µM
- TGI (HS 578T breast): 4.55 µM
- GI50 (MDA-MB-231 breast): 0.666 µM
- TGI (MDA-MB-231 breast): 2.23 µM
- GI50 (NCI-H23 lung): 1.33 µM
- TGI (NCI-H23 lung): 3.04 µM
- GI50 (NCI/ADR-RES ovarian): 19.7 µM
- TGI (NCI/ADR-RES ovarian): > 100 µM
- GI50 (RXF 393 renal): 1.14 µM
- TGI (RXF 393 renal): 2.45 µM
- GI50 (SF-268 CNS): 1.56 µM
- TGI (SF-268 CNS): 4.08 µM
- GI50 (SF-295 CNS): 1.46 µM
- TGI (SF-295 CNS): 2.99 µM
- GI50 (SF-539 CNS): 1.45 µM
- TGI (SF-539 CNS): 2.91 µM
- GI50 (SK-MEL-2 melanoma): 2.06 µM
- TGI (SK-MEL-2 melanoma): 4.15 µM
- GI50 (SNB-19 CNS): 0.692 µM
- TGI (SNB-19 CNS): 2.67 µM
- GI50 (SNB-75 CNS): 1.31 µM
- TGI (SNB-75 CNS): 2.99 µM
- GI50 (TK-10 renal): 2.19 µM
- TGI (TK-10 renal): 5.07 µM
- GI50 (U251 CNS): 0.354 µM
- TGI (U251 CNS): 1.08 µM

Structure (SMILES): CCC(C)[C@H]1OC(=O)[C@H](C(C)C)N(C)C(=O)[C@@H](C(C)C)OC(=O)[C@H](C(C)C)N(C)C(=O)[C@@H](C(C)CC)OC(=O)[C@H](C(C)C)N(C)C1=O (stereo not given in full)
- GI50 (786-0 renal): 0.575 µM
- TGI (786-0 renal): 5.39 µM
- GI50 (A498 renal): 0.39 µM
- TGI (A498 renal): 1.17 µM
- GI50 (A549 NSCLC): 0.514 µM
- TGI (A549 NSCLC): > 16.7 µM
- GI50 (ACHN renal): 0.517 µM
- TGI (ACHN renal): 2.96 µM
- GI50 (BT-549 breast): 0.501 µM
- TGI (BT-549 breast): 1.75 µM
- GI50 (CCRF-CEM leukemia): 0.6 µM
- TGI (CCRF-CEM leukemia): 3.04 µM
- GI50 (COLO 205 colon): 0.341 µM
- TGI (COLO 205 colon): 0.743 µM
- GI50 (EKVX NSCLC): 0.554 µM
- TGI (EKVX NSCLC): > 16.7 µM
- GI50 (HCC-2998 colon): 0.846 µM
- TGI (HCC-2998 colon): 8.06 µM
- GI50 (HCT-116 colon): 0.532 µM
- TGI (HCT-116 colon): > 16.7 µM
- GI50 (HCT-15 colon): 0.536 µM
- TGI (HCT-15 colon): 3.52 µM
- GI50 (HL-60(TB) leukemia): 0.383 µM
- TGI (HL-60(TB) leukemia): 0.851 µM
- GI50 (HOP-62 NSCLC): 0.491 µM
- TGI (HOP-62 NSCLC): 2.42 µM
- GI50 (HOP-92 NSCLC): 0.379 µM
- TGI (HOP-92 NSCLC): 1.05 µM
- GI50 (HS 578T breast): 0.745 µM
- TGI (HS 578T breast): 6.96 µM
- GI50 (HT29 colon): 0.567 µM
- TGI (HT29 colon): 2.16 µM
- GI50 (IGROV1 ovarian): 0.886 µM
- TGI (IGROV1 ovarian): > 16.7 µM
- GI50 (K-562 leukemia): 0.687 µM
- TGI (K-562 leukemia): > 16.7 µM
- GI50 (KM12 colon): 0.651 µM
- TGI (KM12 colon): > 16.7 µM
- GI50 (LOX IMVI melanoma): 0.562 µM
- TGI (LOX IMVI melanoma): 2.14 µM
- GI50 (M14 melanoma): 0.601 µM
- TGI (M14 melanoma): 2.55 µM
- GI50 (MALME-3M melanoma): 0.458 µM
- TGI (MALME-3M melanoma): 1.81 µM
- GI50 (MCF7 breast): 0.529 µM
- TGI (MCF7 breast): > 16.7 µM
- GI50 (MDA-MB-231 breast): 0.52 µM
- TGI (MDA-MB-231 breast): 1.63 µM
- GI50 (MDA-MB-435): 0.619 µM
- TGI (MDA-MB-435): 7.65 µM
- GI50 (MOLT-4 leukemia): 0.793 µM
- TGI (MOLT-4 leukemia): 2.85 µM
- GI50 (NCI-H226 lung): 0.647 µM
- TGI (NCI-H226 lung): 2.73 µM
- GI50 (NCI-H23 lung): 0.548 µM
- TGI (NCI-H23 lung): > 16.7 µM
- GI50 (NCI-H460 lung): 0.57 µM
- TGI (NCI-H460 lung): 3.35 µM
- GI50 (NCI-H522 lung): 0.429 µM
- TGI (NCI-H522 lung): 1.65 µM
- GI50 (NCI/ADR-RES ovarian): 0.51 µM
- TGI (NCI/ADR-RES ovarian): 5.9 µM
- GI50 (OVCAR-3 ovarian): 0.694 µM
- TGI (OVCAR-3 ovarian): > 16.7 µM
- GI50 (OVCAR-4 ovarian): 0.632 µM
- TGI (OVCAR-4 ovarian): > 16.7 µM
- GI50 (OVCAR-5 ovarian): 0.537 µM
- TGI (OVCAR-5 ovarian): 6.12 µM
- GI50 (OVCAR-8 ovarian): 0.61 µM
- TGI (OVCAR-8 ovarian): > 16.7 µM
- GI50 (PC-3 prostate): 0.588 µM
- TGI (PC-3 prostate): 9.93 µM
- GI50 (RPMI-8226 leukemia): 0.413 µM
- TGI (RPMI-8226 leukemia): 1.02 µM
- GI50 (RXF 393 renal): 0.42 µM
- TGI (RXF 393 renal): 2.57 µM
- GI50 (SF-268 CNS): 0.726 µM
- TGI (SF-268 CNS): 4.26 µM
- GI50 (SF-295 CNS): 0.453 µM
- TGI (SF-295 CNS): 1.53 µM
- GI50 (SF-539 CNS): 0.638 µM
- TGI (SF-539 CNS): 2.71 µM
- GI50 (SK-MEL-2 melanoma): 0.533 µM
- TGI (SK-MEL-2 melanoma): 2.19 µM
- GI50 (SK-MEL-28 melanoma): 0.952 µM
- TGI (SK-MEL-28 melanoma): 4.45 µM
- GI50 (SK-MEL-5 melanoma): 0.357 µM
- TGI (SK-MEL-5 melanoma): 0.783 µM
- GI50 (SK-OV-3 ovarian): 0.379 µM
- TGI (SK-OV-3 ovarian): 1.01 µM
- GI50 (SN12C renal): 0.544 µM
- TGI (SN12C renal): 2.16 µM
- GI50 (SNB-19 CNS): 0.616 µM
- TGI (SNB-19 CNS): 3.89 µM
- GI50 (SNB-75 CNS): 0.507 µM
- TGI (SNB-75 CNS): 2.82 µM
- GI50 (SR leukemia): 0.685 µM
- TGI (SR leukemia): 3.62 µM
- GI50 (SW-620 colon): 0.616 µM
- TGI (SW-620 colon): > 16.7 µM
- GI50 (T-47D breast): 0.472 µM
- TGI (T-47D breast): 1.47 µM
- GI50 (TK-10 renal): 0.543 µM
- TGI (TK-10 renal): 3.97 µM
- GI50 (U251 CNS): 0.56 µM
- TGI (U251 CNS): 2.33 µM
- GI50 (UACC-257 melanoma): 0.427 µM
- TGI (UACC-257 melanoma): 1.56 µM
- GI50 (UACC-62 melanoma): 0.71 µM
- TGI (UACC-62 melanoma): 2.98 µM
- GI50 (UO-31 renal): 0.422 µM
- TGI (UO-31 renal): 1.71 µM
